Data taken from patent EP4722262A1, “PHOTOCURABLE COMPOSITION, THREE-DIMENSIONAL SHAPED OBJECT, CASTING MOLD, METHOD FOR PRODUCING CURED OBJECT, AND METHOD FOR PRODUCING DENTAL PROSTHESIS” (Mitsui Chemicals, Inc., priority 2023, dated 2025).

Test: Viscosity at 25°C of manufactured monomers
Type: physicochemical

viscosity at 25°C: 7,100 mPa·s
Compound: C=CC(=O)OCCOC(=O)NCCC(C)CC(C)(C)CNC(=O)OCCOC(=O)C=C (stereo not shown) [SUA-001]
